Test results from US20260041093A1, “Ionic Derivatives Of Aromatic Carboxylic Acid For Use As Plant Stimulants, Method For Stimulating Plants And Use Of These Derivatives For Manufacturing Compositions For Stimulating Plants” (FUNDACJA UNIWERSYTETU IM. ADAMA MICKIEWICZA W POZNANIU, priority 2022, published 2026).
Like-named read-outs stand apart in the source and are kept apart here.

What was measured:
[1] = system: Pseudomonas syringae pv. Tomato (Pst); assay: Protection of tomato against Pseudomonas syringae pv. Tomato by spraying (Example 33); type: in vivo, Lycopersicon Esculentum Mill tomato; conditions: 80 mg/L, sprayed twice; 2 weeks after infection
Method: (§1) Tomato plants, at the stage of the first pair of developed true leaves, were watered twice with a solution of substance 1-6 at a concentration of 80 mg/L, at a weekly interval. The control was tomato plants watered only with water. One week after the second treatment, a suspension of Pst bacteria at a concentration of 10^5 was spot-injected into the leaves using an insulin syringe (without a needle). The suspension was prepared from a two-day culture of Pst on solid medium. Protection against biotic stress was evaluated by the proliferation of bacteria in the leaves at the insertion site and the formation of a necrotic spot, compared to the control.
The procedure was followed as in Example 32, with the plants sprayed.

[2] = system: Pseudomonas syringae pv. Tomato (Pst); conditions: watered twice, Pst 10^5, 2 weeks after infection
Method: Tobacco plants at the stage of 3 developed leaves were watered twice, at a weekly interval, with a solution of test substances 1-11 at concentrations of 10, 40, 80 mg/L. The control was tobacco plants watered with water only. One week after the second treatment, a suspension of Pst bacteria at a concentration of 10^5 was spotted into the leaves using an insulin syringe (without a needle). The suspension was prepared from a two-day culture of Pst on solid medium. Protection against biotic stress was evaluated by the proliferation of bacteria in the leaves at the insertion site and the formation of a necrotic spot, compared to the control.
We proceeded as in Example 30, with the effectiveness of protection against biotic stress tested against bacterial cell concentrations raised to about 10^6.

[3] = system: Tobacco Mosaic Virus (TMV); assay: Protection of tobacco against TMV infection by spraying twice (Example 25); type: in vivo, Nicotiana tabacum cv. Xanthi; conditions: sprayed twice, 7 days after infection
Text: 5-chlorosalicylate of choline; 3. 3,5-dichlorosalicylate of choline; 4. 3-chlorosalicylate of sodium, 5. 3-chlorosalicylate of potassium, 6. 3-chlorosalicylate of calcium, 7.

Brome Mosaic Virus (BMV) = assay: Protection of barley against Brome Mosaic Virus infection by watering (Examples 28 and 29); type: in vivo; conditions: 80 mg/L, watered twice; 2 weeks after infection
[4] = system: Pseudomonas syringae pv. Tomato; assay: Direct effect on bacterial infectivity (Example 22); type: in vivo; conditions: tobacco plant, 5 days after infection with solution of bacteria and test substance; control 100
Method: Proceeding as in example 21, Pseudomonas syringae pv. Tomato bacteria were tested and incubated in bacterial medium.

powdery mildew fungus [5] = assay: Direct effect on fungal infectivity (Example 23); type: in vivo; conditions: tobacco plant, 5 days after infection with solution of fungus and test substance; control 100
Method: Proceeding as in Example 21, the test was performed on the powdery mildew fungus, which was then incubated on the medium.

[6] = system: Pseudomonas syringae pv. Tomato (Pst); assay: Protection of tomato against Pseudomonas syringae pv. Tomato by watering (Example 32); type: in vivo; conditions: 80 mg/L; watered twice; Pst 10^5; 2 weeks after infection
Method: as §1

[7] = system: Tobacco Mosaic Virus (TMV); assay: Protection of tobacco against TMV infection by watering twice (Example 24); type: in vivo, Nicotiana tabacum cv. Xanthi; conditions: watered twice, 7 days after infection
Method: Tobacco plants (Nicotiana tabacum) cv. […] 3,5-dichlorosalicylate of choline; 4. 3-chlorosalicylate of sodium, 5. 3-chlorosalicylate of potassium, 6. 3-chlorosalicylate of calcium, 7. 3-chlorosalicylate of magnesium at a concentration of 10 or 40 or 80 mg/L, at one-week intervals. The control was tobacco plants watered only with water. One week after the second treatment of the plants with the preparation, mechanical infection of the leaves with Tobacco Mosaic Virus (TMV) was carried out. This consisted of rubbing carborundum-sprinkled leaves several times with fingers soaked in a suspension of purified virus at a concentration of about 2 μg/ml. In order to evaluate the effectiveness of the tested substances in protection against biotic stresses, the TMV model and tobacco cv. Xanthi characterized by an interaction in the form of hypersensitivity phenomenon, i.e. the formation of easily quantifiable necrotic spots, were used.

powdery mildew fungus [8] = type: in vivo, tomato; conditions: 80 mg/L, watered twice; 2 weeks after infection
Method: Tomato plants, at the stage of the first pair of developed true leaves, were watered twice with a solution of substance 1-32 at a concentration of 80 mg/L, at a weekly interval. The control was tomato plants watered only with water. […] The suspension was prepared from culture on solid medium. Protection against biotic stress was evaluated by comparing the area of leaves affected by infection.

[9] = system: tobacco mosaic virus (TMV); assay: Direct effect on TMV infectivity: virus incubated with substance, then Xanthi tobacco leaves infected (Example 21); type: in vivo; conditions: TMV about 3 μg/ml mixed 1:1 with substance 80 mg/L, 30 min; 5 days after infection; control 100
Method: Sodium 3-chlorosalicylate; 5. Potassium 3-chlorosalicylate; 6. Calcium 3-chlorosalicylate; 7. Magnesium 3-chlorosalicylate (concentration 80 mg/L), in a 1:1 ratio and incubated for 30 min at room temperature. The control variant consisted of TMV incubated in water. All virus suspensions were used to mechanically infect Xanthi tobacco leaves, whose reaction to infection is manifested in easily quantifiable local necrotic spots (hypersensitivity, local infection).
After 5 days, the area of leaf covered by necrotic spots compared to total leaf area was calculated for plants of all variants of treatment.

powdery mildew fungus [10] = assay: Protection of tomato against powdery mildew by spraying (Example 35); type: in vivo, Lycopersicon Esculentum Mill tomato; conditions: 40 mg/l, sprayed twice; 2 weeks after pathogen inoculation
Method: […] The control was tomato plants watered only with water. […] The suspension was prepared from culture on solid medium. Protection against biotic stress was evaluated by comparing the area of leaves affected by infection.
Proceeded in the way as described in Example 34, with the difference that plants were sprayed and not watered.

C[N+](C)(C)CCO.O=C([O-])c1cc(Cl)cc(Cl)c1O
% reduction in necrotic spots compared to control [1]: 57% | % reduction in necrotic spots compared to control ([2]; 10 mg/L): 27% | % reduction in necrotic spots compared to control ([2]; 40 mg/L): 38% | % reduction in necrotic spots compared to control ([2]; 80 mg/L): 84% | % reduction in necrotic spots compared to control ([3]; 10 mg/L): 36% | % reduction in necrotic spots compared to control ([3]; 40 mg/L): 47% | % reduction in necrotic spots compared to control ([3]; 80 mg/L): 54% | % reduction in necrotic spots compared to control (Brome Mosaic Virus (BMV)): 77% | % of necrotic spots [4]: 100% | % of necrotic spots (powdery mildew fungus [5]): 96% | % reduction in necrotic spots compared to control [6]: 59% | % reduction in necrotic spots compared to control ([7]; 10 mg/L): 36% | % reduction in necrotic spots compared to control ([7]; 40 mg/L): 58% | % reduction in necrotic spots compared to control ([7]; 80 mg/L): 96% | % reduction in necrotic spots compared to control (powdery mildew fungus [8]): 85% | % of necrotic spots [9]: 95% | Reduction in necrotic spots (white patches) compared to control (powdery mildew fungus [10]): 66%

C[N+](C)(C)CCO.O=C([O-])c1cc(Cl)ccc1O [choline 5-chlorosalicylate]
% reduction in necrotic spots compared to control [1]: 88% | % reduction in necrotic spots compared to control ([2]; 10 mg/L): 28% | % reduction in necrotic spots compared to control ([2]; 40 mg/L): 36% | % reduction in necrotic spots compared to control ([2]; 80 mg/L): 80% | % reduction in necrotic spots compared to control ([3]; 10 mg/L): 39% | % reduction in necrotic spots compared to control ([3]; 40 mg/L): 61% | % reduction in necrotic spots compared to control ([3]; 80 mg/L): 74% | % reduction in necrotic spots compared to control (Brome Mosaic Virus (BMV)): 36% | % of necrotic spots [4]: 98% | % of necrotic spots (powdery mildew fungus [5]): 98% | % reduction in necrotic spots compared to control [6]: 87% | % reduction in necrotic spots compared to control ([7]; 10 mg/L): 34% | % reduction in necrotic spots compared to control ([7]; 40 mg/L): 62% | % reduction in necrotic spots compared to control ([7]; 80 mg/L): 98% | % reduction in necrotic spots compared to control (powdery mildew fungus [8]): 90% | % of necrotic spots [9]: 100% | Reduction in necrotic spots (white patches) compared to control (powdery mildew fungus [10]): 68%

O=C([O-])c1cccc(Cl)c1O.[K+] [potassium 3-chlorosalicylate]
% reduction in necrotic spots compared to control [1]: 84% | % reduction in necrotic spots compared to control ([3]; 10 mg/L): >10% | % reduction in necrotic spots compared to control ([3]; 40 mg/L): >10% | % reduction in necrotic spots compared to control ([3]; 80 mg/L): 15% | % of necrotic spots [4]: 98% | % of necrotic spots (powdery mildew fungus [5]): 98% | % reduction in necrotic spots compared to control [6]: 87% | % reduction in necrotic spots compared to control ([7]; 10 mg/L): 32% | % reduction in necrotic spots compared to control ([7]; 40 mg/L): 65% | % reduction in necrotic spots compared to control ([7]; 80 mg/L): 98% | % reduction in necrotic spots compared to control (powdery mildew fungus [8]): 84% | % of necrotic spots [9]: 95% | Reduction in necrotic spots (white patches) compared to control (powdery mildew fungus [10]): 54%

O=C([O-])c1cccc(Cl)c1O.[Na+] [sodium 3-chlorosalicylate]
% reduction in necrotic spots compared to control [1]: 51% | % reduction in necrotic spots compared to control ([3]; 10 mg/L): 24% | % reduction in necrotic spots compared to control ([3]; 40 mg/L): 29% | % reduction in necrotic spots compared to control ([3]; 80 mg/L): 55% | % of necrotic spots [4]: 95% | % of necrotic spots (powdery mildew fungus [5]): 96% | % reduction in necrotic spots compared to control [6]: 53% | % reduction in necrotic spots compared to control ([7]; 10 mg/L): 24% | % reduction in necrotic spots compared to control ([7]; 40 mg/L): 63% | % reduction in necrotic spots compared to control ([7]; 80 mg/L): 95% | % reduction in necrotic spots compared to control (powdery mildew fungus [8]): 88% | % of necrotic spots [9]: 97% | Reduction in necrotic spots (white patches) compared to control (powdery mildew fungus [10]): 55%

calcium 3-chlorosalicylate
% reduction in necrotic spots compared to control [1]: 82% | % reduction in necrotic spots compared to control ([3]; 10 mg/L): 20% | % reduction in necrotic spots compared to control ([3]; 40 mg/L): 30% | % reduction in necrotic spots compared to control ([3]; 80 mg/L): 36% | % of necrotic spots [4]: 97% | % of necrotic spots (powdery mildew fungus [5]): 97% | % reduction in necrotic spots compared to control [6]: 86% | % reduction in necrotic spots compared to control ([7]; 10 mg/L): 33% | % reduction in necrotic spots compared to control ([7]; 40 mg/L): 65% | % reduction in necrotic spots compared to control ([7]; 80 mg/L): 97% | % reduction in necrotic spots compared to control (powdery mildew fungus [8]): 69% | % of necrotic spots [9]: 100% | Reduction in necrotic spots (white patches) compared to control (powdery mildew fungus [10]): 62%
